Experimental data taken from patent publication US10258602B2 (Ocera Therapeutics, Inc., priority 2007, dated 2019).

The compounds below were run against human growth hormone secretagogue receptor (hGHS-R1a) (Homo sapiens, UniProt Q92847) (assay: Competitive radioligand binding assay (ghrelin receptor), standard method A). Settings: binding activity at the human ghrelin receptor, standard method A.
Description: A competitive binding assay at the human growth hormone secretagogue receptor (hGHS-R1a) can be carried out analogously to assays described in the literature. (Bednarek, M. A.; et al. J. Med. Chem. 2000, 43, 4370-4376; Palucki, B. L.; et al. Bioorg. Med. Chem. Lett. […], 11, 1955-1957.) See also U.S. patent application Ser. Nos. 11/149,512 and 11/149,731. Binding activity at the gherlin receptor for representative compounds of the present invention is shown in the Examples below.

human growth hormone secretagogue receptor (hGHS-R1a), sequence (Q92847 whole entry): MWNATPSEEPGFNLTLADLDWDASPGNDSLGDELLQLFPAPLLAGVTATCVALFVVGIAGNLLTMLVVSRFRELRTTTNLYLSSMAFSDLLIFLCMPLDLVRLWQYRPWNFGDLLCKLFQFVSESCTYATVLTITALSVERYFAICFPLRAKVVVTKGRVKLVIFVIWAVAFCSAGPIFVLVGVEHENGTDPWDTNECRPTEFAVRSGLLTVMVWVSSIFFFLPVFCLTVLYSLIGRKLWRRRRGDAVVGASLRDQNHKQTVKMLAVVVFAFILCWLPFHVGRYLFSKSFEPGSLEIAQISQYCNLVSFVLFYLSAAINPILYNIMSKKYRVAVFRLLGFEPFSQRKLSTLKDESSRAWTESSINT

Row | SMILES | Ki
1 | C[C@@H]1C(=O)N[C@H](Cc2ccc(O)cc2)C(=O)NCCCc2nccc3c2O[C@H](CC3)CN[C@@H](C2CC2)C(=O)N1C [Compound 1074] | ≤ 100 nM
2 | C[C@@H]1C(=O)N[C@H](Cc2ccc(Cl)cc2)C(=O)NCCCc2ccc(F)cc2OCCN[C@@H](C2CC2)C(=O)N1C [Compound 864] | ≤ 10 nM
3 | CC1C(=O)NC(Cc2ccc(O)c(F)c2)C(=O)NCCCc2ncccc2OCCNC(C2CC2)C(=O)N1C (mixture of isomers) [Compound 1078] | ≤ 100 nM
4 | C[C@@H]1CN[C@@H](C2CC2)C(=O)N(C)[C@H](C)C(=O)N[C@H](C(C)(C)C)C(=O)NCCCc2ccccc2O1 [Compound 1014] | ≤ 500 nM
5 | C[C@@H]1CN[C@@H](C2CC2)C(=O)N(C)[C@H](C)C(=O)N[C@H](Cc2ccccc2)C(=O)NCCCc2ncccc2O1 [Compound 1028] | ≤ 100 nM
6 | C[C@@H]1C(=O)N[C@H](Cc2ccc(F)cc2)C(=O)NCCCc2cccc3c2O[C@@H](CC3)CN[C@@H](C2CC2)C(=O)N1C [Compound 1016] | ≤ 100 nM
7 | CC1CNC(C2CC2)C(=O)N(C)C(C)C(=O)NC(C(C)(C)C)C(=O)NCCCc2cccc(F)c2O1 (stereo not drawn) [Compound 1044] | ≤ 500 nM
8 | C[C@@H]1CN[C@@H](C2CC2)C(=O)N(C)[C@H](C)C(=O)N[C@H](Cc2ccc(F)cc2)C(=O)NCCCc2c(F)cccc2O1 [Compound 937] | ≤ 500 nM
9 | C[C@@H]1C(=O)N[C@H](Cc2ccccc2)C(=O)NCCCc2cccc3c2OC(CC3)CN[C@@H](C2CC2)C(=O)N1C (stereo partly drawn) [Compound 874] | ≤ 100 nM
10 | C[C@@H]1CN[C@@H](C2CC2)C(=O)N(C)[C@H](C)C(=O)N[C@H]([C@@H](C)c2ccc(F)cc2)C(=O)NCCCc2ccccc2O1 [Compound 1034] | ≤ 100 nM
11 | C[C@@H]1CN[C@@H](C2CC2)C(=O)N(C)[C@H](C)C(=O)N[C@H](c2ccc(O)cc2)C(=O)NCCCc2ccccc2O1 [Compound 1103] | > 500 nM
12 | CC(C)CC1NC(=O)C(C)N(C)C(=O)C(C2CC2)NCC(C)OC2CCCCC2CCC(C)NC1=O (stereo not drawn) [Compound 1107] | ≤ 100 nM
13 | CC1C(=O)NC(Cc2ccc(F)cc2)C(=O)NCCCc2c(F)cccc2OCCNC(C2CC2)C(=O)N1C (stereo not drawn) [Compound 1109] | ≤ 10 nM
14 | CC[C@H](C)[C@@H]1NCCOc2cccnc2CCCNC(=O)[C@@H](Cc2ccc(O)cc2)NC(=O)[C@@H](C)N(C)C1=O [Compound 992] | ≤ 100 nM
15 | C[C@@H]1C(=O)N[C@H](Cc2ccc(O)cc2)C(=O)N[C@@H](C)CCc2ccccc2OCCN[C@@H](C2CC2)C(=O)N1C [Compound 1083] | ≤ 100 nM
16 | CC(C)C[C@H]1NC(=O)[C@@H](C)N(C)C(=O)[C@H](C2CCCCC2)NC[C@@H](C)Oc2ccccc2CCCNC1=O [Compound 1099] | ≤ 1 nM
17 | C[C@@H]1CN[C@@H](C2CC2)C(=O)N(C)[C@H](C)C(=O)N[C@H](Cc2ccc(Cl)cc2)C(=O)NCCCc2cccc(F)c2O1 [Compound 936] | ≤ 100 nM
18 | C[C@@H]1C(=O)N[C@H]([C@@H](C)c2ccc(O)cc2)C(=O)NCCCc2nccc3c2O[C@H](CC3)CN[C@@H](C2CC2)C(=O)N1C [Compound 1076] | ≤ 100 nM
19 | CC(C)[C@@H]1NC[C@@H](C)Oc2ccccc2CCCNC(=O)[C@@H](Cc2ccccc2)NC(=O)[C@@H](C)N(C)C1=O [Compound 871] | ≤ 500 nM

Row | SMILES | Ki
20 | C[C@@H]1C(=O)N[C@H](Cc2ccc(F)cc2)C(=O)NCCCc2ccccc2OC(C)(C)CN[C@@H](C2CC2)C(=O)N1C [Compound 1003] | ≤ 100 nM
21 | CC(C)[C@@H]1NC[C@@H](C)Oc2ccccc2CCCNC(=O)[C@@H](Cc2ccc(F)cc2)NC(=O)[C@@H](C)N(C)C1=O [Compound 857] | ≤ 500 nM
22 | CC[C@H](C)[C@@H]1NC[C@@H](C)Oc2ccccc2CCCNC(=O)[C@@H](Cc2ccccc2)NC(=O)[C@@H](CO)N(C)C1=O [Compound 939] | ≤ 100 nM
23 | COC(=O)C[C@H]1NC(=O)[C@@H](C)N(C)C(=O)[C@H](C2CC2)NC[C@@H](C)Oc2ccccc2CCCNC1=O [Compound 1090] | ≤ 500 nM
24 | CC(C)C[C@H]1NC(=O)[C@@H](C)N(C)C(=O)[C@H](C2CC2)NCCOc2cnccc2CCCNC1=O [Compound 1021] | > 500 nM
25 | CC[C@H](C)[C@@H]1NC[C@@H](C)Oc2c(F)cccc2CCCNC(=O)[C@@H](CC(C)C)NC(=O)[C@@H](C)N(C)C1=O [Compound 981] | ≤ 10 nM
26 | CC1CNC(C2CC2)C(=O)N(C)C(C)C(=O)NC(CC2CCCC2)C(=O)NCCCC2CCCCC2O1 (mixture of isomers) [Compound 1114] | ≤ 1 nM
27 | CC(C)[C@@H]1CN[C@@H](C2CC2)C(=O)N(C)[C@H](C)C(=O)N[C@H](Cc2ccccc2)C(=O)NCCCc2ccc(F)cc2O1 [Compound 965] | ≤ 500 nM
28 | C[C@@H]1CN[C@@H](C2CC2)C(=O)N(C)[C@H](C)C(=O)N[C@H](Cc2ccc(F)cc2)C(=O)NCCCc2cccc(Cl)c2O1 [Compound 1007] | ≤ 100 nM
29 | C[C@H]1CNC(=O)[C@@H](Cc2ccc(F)cc2)NC(=O)[C@@H](C)N(C)C(=O)[C@H](C2CC2)NC[C@@H](C)Oc2ccccc2C1 [Compound 1005] | ≤ 100 nM
30 | CC[C@H](C)[C@@H]1NC[C@@H](C)Oc2c(F)cccc2CCCNC(=O)[C@@H](Cc2cccnc2)NC(=O)[C@@H](C)N(C)C1=O [Compound 974] | ≤ 100 nM
31 | C[C@@H]1C(=O)N[C@H](Cc2ccc(O)cc2)C(=O)NCCCc2cccc3c2O[C@@H](CC3)CN[C@@H](C2CC2)C(=O)N1C [Compound 1024] | ≤ 100 nM
32 | C[C@@H]1CN[C@@H](C2CC2)C(=O)N(C)[C@H](C)C(=O)N[C@H]([C@H](C)c2ccc(O)cc2)C(=O)NCCCc2ncccc2O1 [Compound 1081] | > 500 nM
33 | C[C@@H]1C(=O)N[C@H](Cc2ccc(O)cc2)C(=O)NCCCc2cccc3c2O[C@H](CC3)CN[C@@H](C2CCCCC2)C(=O)N1C [Compound 1105] | ≤ 1 nM
34 | C[C@@H]1CN[C@@H](C2CC2)C(=O)N(C)[C@H](C)C(=O)N[C@H](Cc2ccc(F)cc2)C(=O)NCCC(C)(C)c2ccccc2O1 [Compound 1071] | ≤ 500 nM
35 | CC1CNC(C2CC2)C(=O)N(C)C(C)C(=O)NC(Cc2ccccc2O)C(=O)NCCCc2ccccc2O1 (mixture of isomers) [Compound 1101] | ≤ 500 nM
36 | C[C@@H]1CN[C@@H](C2CC2)C(=O)N(C)[C@H](C)C(=O)N[C@H](Cc2ccc(F)cc2)C(=O)NCCCc2cc(F)c(F)cc2O1 [Compound 950] | ≤ 500 nM
37 | CC1CNC(C2CC2)C(=O)N(C)C(C)C(=O)NC(Cc2ccccc2O)C(=O)NCCCC2CCCCC2O1 (mixture of isomers) [Compound 1115] | ≤ 500 nM
38 | CCC[C@@H]1NC[C@@H](C)Oc2ccccc2CCCNC(=O)[C@@H](Cc2ccccc2)NC(=O)[C@@H](C)N(C)C1=O [Compound 858] | ≤ 500 nM

Row | SMILES | Ki
39 | CC(C)CC1NC(=O)C(C)N(C)C(=O)C(C2CC2)NCCOc2cccc(F)c2CCCNC1=O (stereo not drawn) [Compound 1111] | ≤ 100 nM
40 | C[C@@H]1CN[C@@H](C2CC2)C(=O)N(C)[C@H](C)C(=O)N[C@H](CC2CCCCC2)C(=O)NCCCc2ccccc2O1 [Compound 1045] | ≤ 100 nM
41 | CCC[C@@H]1NC[C@@H](C)Oc2ccccc2CCCNC(=O)[C@@H](Cc2ccc(OC)cc2)NC(=O)[C@@H](C)N(C)C1=O [Compound 866] | ≤ 100 nM
42 | C[C@@H]1CN[C@@H](C2CC2)C(=O)N(C)[C@H](C)C(=O)N[C@H](Cc2cc(Br)c(O)c(Br)c2)C(=O)NCCCc2ccccc2O1 [Compound 1053] | ≤ 100 nM
43 | C[C@@H]1CN[C@@H](C2CC2)C(=O)N(C)[C@H](C)C(=O)N[C@H](Cc2ccc(F)c(F)c2)C(=O)NCCCc2ccccc2O1 [Compound 1040] | ≤ 100 nM
44 | CC(C)CC1NC(=O)C(C)N(C)C(=O)C(C2CC2)NCCOC2CCCCC2CCCNC1=O (stereo not drawn) [Compound 1106] | ≤ 100 nM
45 | CC[C@H](C)[C@@H]1NC[C@@H](C)Oc2ccccc2CCCNC(=O)[C@@H](Cc2ccc(F)cc2)NC(=O)[C@@H](C)N(C)C1=O [Compound 855] | ≤ 100 nM
46 | CC[C@H](C)[C@@H]1NC[C@@H](C)Oc2ccccc2CCCNC(=O)[C@@H](Cc2ccc(Cl)cc2)NC(=O)[C@@H](C)N(C)C1=O [Compound 878] | ≤ 100 nM
47 | C[C@@H]1CN[C@@H](C2CC2)C(=O)N(C)[C@H](C)C(=O)N[C@H](C2CC2)C(=O)NCCCc2ccccc2O1 [Compound 1048] | > 500 nM
48 | Cc1ccc(C[C@H]2NC(=O)[C@@H](C)N(C)C(=O)[C@H](C3CC3)NCCOc3ccccc3CCCNC2=O)cc1 [Compound 860] | ≤ 10 nM
49 | CC[C@H](C)[C@@H]1NC[C@@H](C)Oc2cccnc2CCCNC(=O)[C@@H](Cc2ccc(F)cc2)NC(=O)[C@@H](C)N(C)C1=O [Compound 1029] | ≤ 10 nM
50 | CC(C)C[C@H]1NC(=O)[C@@H](C)N(C)C(=O)[C@H](C2CC2)NC[C@@H]2CCc3cccc(c3O2)CCCNC1=O [Compound 1015] | ≤ 500 nM
51 | C[C@@H]1C(=O)N[C@H](Cc2ccccc2)C(=O)NCCCc2ccncc2OCCN[C@@H](C2CC2)C(=O)N1C [Compound 1031] | ≤ 100 nM
52 | CC[C@H](C)[C@@H]1NC[C@@H](C)Oc2ccccc2CCCNC(=O)[C@@H](Cc2ccc(O)cc2)NC(=O)[C@@H](C)N(C)C1=O [Compound 993] | ≤ 100 nM
53 | C[C@@H]1CN[C@@H](C2CC2)C(=O)N(C)[C@H](C)C(=O)N[C@H](Cc2ccc(O)cc2)C(=O)NCCCc2ncccc2O1 [Compound 1023] | ≤ 100 nM
54 | CC(C)CC1NC(=O)C(C)N(C)C(=O)C(C2CCCCC2)NCCOc2cc(F)ccc2CCCNC1=O (stereo not drawn) [Compound 1112] | ≤ 1 nM
55 | C[C@@H]1CN[C@@H](C2CC2)C(=O)N(C)[C@H](C)C(=O)N[C@H](Cc2ccc(Cl)cc2)C(=O)NCCCc2cc(F)c(F)cc2O1 [Compound 951] | ≤ 500 nM
56 | C[C@@H]1CN[C@@H](C2CC2)C(=O)N(C)[C@H](C)C(=O)N[C@H]([C@@H](C)c2ccc(O)cc2)C(=O)NCCCc2ccccc2O1 [Compound 1068] | ≤ 100 nM
57 | C[C@@H]1CN[C@@H](C2CC2)C(=O)N(C)[C@H](C)C(=O)N[C@H](Cc2cccc(O)c2)C(=O)NCCCc2ncccc2O1 [Compound 1079] | ≤ 100 nM
